According to US20230142077A1, “COMPOSITION FOR PROMOTING ANGIOGENESIS USING LIQUID TYPE PLASMA AND METHOD FOR PROMOTING ANGIOGENESIS USING SAME” (AJOU UNIVERSITY INDUSTRY-ACADEMIC COOPERATION FOUNDATION, priority 2021, published 2023):

Tests used:
Assay type in all cases: cell-based, Human
[1] = system: intracellular nitric oxide (NO) in HUVECs; experiment: Intracellular NO production analysis (DAF-FM probe); settings: L-NMMA (10 μM) with NTS, FIG. 6B
Procedure: Nitric oxide (NO) levels were confirmed by measuring fluorescence changes in 4-amino-5-methylamino-2′,7′-difluorofluorescein diacetate (DAF-FMDA, Thermo Fisher, D23844, Eugene, Oreg., USA) due to oxidation, respectively. Cells were cultured with reagents according to the manufacturer's instructions. Changes in DAF-FM fluorescence were measured by flow cytometry (BD Biosciences) and a fluorescence microscope (EVOS FL Auto, Thermo Fisher) after 24 hours. NG-methyl-L-arginine acetate salt (L-NMMA, Sigma, M7033) was used to suppress the production of nitric oxide (NO).

HUVEC tube formation = experiment: Tube formation analysis on Matrigel; settings: L-NMMA (10 μM) with NTS, FIG. 6C
Procedure: HUVEC cells were trypsinized and then seeded onto a 96-well plate (2×10^4/well) pre-coated with 40 μl (10 mg/ml) of growth factor-reduced Matrigel (BD Biosciences, Billerica, Mass.) in an EBM2 medium.
After incubation at 37° C. for 30 minutes, 1 hour, 3 hours, and 6 hours, viable cells were detected by staining with Calcein AM (Trevigen, Gaithersburg, Md.), and then a capillary-like structure was imaged using EVOS FL Auto (ThermoFisher). Data in the images was quantified with National Institutes of Health (NIH) ImageJ 1.41q software.

eNOS (S1177) = experiment: Western blot, phosphorylated eNOS; settings: FIG. 6A
Procedure: Western blot was performed using a known method. Cells were lysed in a RIPA buffer (Sigma Aldrich) including 150 mM NaCl, 1.0% Nonidet-P 40, 0.5% sodium deoxycholate, 0.1% sodium dodecyl sulfate, 50 mM Tri (pH 8.0), a protease inhibitor cocktail and PhoSTOP (Roche Molecular Biochemicals, Basel, Switzerland).
A primary antibody used in the present experiment was purchased from Cell Signaling (Danvers, Mass., USA) and VE-cadherin, p-LKB1, and LKB1 were purchased from Santa Cruz (Cambridge, UK). A secondary antibody (anti-rabbit IgG or anti-mouse IgG, 1:2000) was purchased from Cell Signaling Technology.
Data in the images was quantified with National Institutes of Health (NIH) ImageJ 1.41q software.

MMP-2 = experiment: Gelatin zymogram analysis; settings: L-NMMA with NTS, FIG. 6F
Procedure: Matrix metalloproteases were analyzed using a known gelatin zymography method. The cells according to Example 2-1 were cultured in a 6-well plate (Corning Scientific, Rochester, N.Y., USA) and treated with NTS (60 sec/ml) or a vehicle control. Thereafter, the supernatant (100 μl) of each sample was mixed with 1 μl of 100 mM 4-aminophenylmercuric acetate (Sigma-Aldrich), and the sample was incubated at 37° C. for 1 hour. After each sample was placed in a sample buffer (excluding 2-mercaptoethanol) for 10 minutes, the samples were electrophoresed on an a 8% polyacrylamide gel containing 1% gelatin.
The gel was incubated at room temperature for 60 minutes in a regeneration buffer, and then incubated in 100 ml of a development buffer at 37° C. with gentle shaking. Thereafter, the gel was stained with Coomassie Brilliant Blue for 3 hours. After destaining with 400 ml of a destaining solution (methanol, 100 ml of acetic acid, 500 ml of distilled water), images were obtained using an image analyzer.

VE-cadherin = experiment: Immunocytochemical analysis, VE-cadherin; settings: NTS+L-NMMA, FIG. 6G
Procedure: Immunocytochemical analysis was performed using a known method. The cells cultured according to Example 2-1 were additionally cultured on coverslips (Thermo Fisher Scientific, Rochester, N.Y., USA) and treated with NTS (60 sec/ml) or a vehicle control.
The coverslips were then treated with polyclonal rabbit anti-LC3B, p-FAK, and VE-Cadherin (1:200; Cell Signaling Technology, Danvers, Mass., USA), incubated for 2 hours, washed with PBS, and then incubated with an Alexa 488-labeled antibody for 1 hour.
Thereafter, after being washed three times with PBS, the slides were stained with Hoechst 33258 (Molecular Probe), and phalloidin (1:50; Molecular Probes, R415) was added thereto for 15 minutes to counterstain nuclei and F-actin. The stained coverslips were washed with PBS, mounted with Vectashield (Vector Laboratories, Inc., Burlingame, Calif., USA), and then analyzed using EVOS FL Auto (Thermo Fisher).

CC(=O)O.CNC(=N)NCCC[C@H](N)C(=O)O [L-NMMA, NG-methyl-L-arginine acetate salt]
intracellular nitric oxide by NTS [1]: significantly reduced
tubular network formed by NTS (HUVEC tube formation): significantly disrupted
p-eNOS phosphorylation by NTS (eNOS (S1177); L-NMMA (10 μM) with NTS): significantly reduced
phosphorylation of eNOS upregulated by NTS (eNOS (S1177); L-NMMA, 1 mM): significantly attenuated
NTS-activated MMP2 (MMP-2): significantly attenuated
NTS-induced reduction of VE-cadherin expression (VE-cadherin): significantly attenuated
